[Cl-].[Cl-].[Zn+2] [ZnCl2, zinc chloride]
Solubility (g/100 g H2O, 25° C.) (25° C.): 408 g/100 g H2O | Calculated Soluble Zinc (at use level in formula): 0.72% | Total Zinc Conc. (at use level in formula): 0.72%

[O]=[Zn] [ZnO, zinc oxide]
Total Zinc Conc. (at use level in formula): 0.80%

— patent US20180360710A1, “Sodium Zinc Alginate Structurant And Methods For Making And Using the Same” (Colgate-Palmolive Company, priority 2015, published 2018)
